Measurements published in patent US11608323B2 (SYNGENTA LIMITED, priority 2013, dated 2023).

Tests used:
Type in all cases: in vivo
ABUTH [1] = assay: Pre-emergence herbicidal activity, glasshouse pot test; details: rate 1000 g/Ha, evaluated after 13 days, scale 0-5
Procedure: (§1) Seeds of a variety of test species were sown in standard soil in pots. After cultivation for one day (pre-emergence) under controlled conditions in a glasshouse (at 24/16° C., day/night; 14 hours light; 65% humidity), the plants were sprayed with an aqueous spray solution derived from the formulation of the technical active ingredient in acetone/water (50:50) solution containing 0.5% Tween 20 (polyoxyethelyene sorbitan monolaurate, CAS RN 9005-64-5). The test plants were then grown in a glasshouse under controlled conditions (at 24/16° C., day/night; 14 hours light; 65% humidity) and watered twice daily. After 13 days, the test was evaluated (5=total damage to plant; 0=no damage to plant).

AMARE [2] = assay: as above; details: rate 1000 g/Ha, evaluated after 13 days, scale 0-5
Procedure: as §1

ECHCG [3] = assay: as above; details: rate 1000 g/Ha, evaluated after 13 days, scale 0-5
Procedure: as §1

SETFA [4] = assay: as above; details: rate 1000 g/Ha, evaluated after 13 days, scale 0-5
Procedure: as §1

ZEAMX [5] = assay: as above; details: rate 1000 g/Ha, evaluated after 13 days, scale 0-5
Procedure: as §1

ABUTH [6] = assay: Post-emergence herbicidal activity, glasshouse pot test; details: Abutilon theophrasti; application post-emergence; rate 1000 g/Ha; evaluated after 13 days
Procedure: (§2) Seeds of a variety of test species were sown in standard soil in pots. After 8 days cultivation (post-emergence) under controlled conditions in a glasshouse (at 24/16° C., day/night; 14 hours light; 65% humidity), the plants were sprayed with an aqueous spray solution derived from the formulation of the technical active ingredient in acetone/water (50:50) solution containing 0.5% Tween 20 (polyoxyethelyene sorbitan monolaurate, CAS RN 9005-64-5). The test plants were then grown in a glasshouse under controlled conditions (at 24/16° C., day/night; 14 hours light; 65% humidity) and watered twice daily. After 13 days, the test was evaluated (5=total damage to plant; 0=no damage to plant).

AMARE [7] = assay: as above; details: Amaranthus retroflexus; application post-emergence; rate 1000 g/Ha; evaluated after 13 days
Procedure: as §2

ECHCG [8] = assay: as above; details: Echinochloa crus-galli; application post-emergence; rate 1000 g/Ha; evaluated after 13 days
Procedure: as §2

SETFA [9] = assay: as above; details: Setaria faberi; application post-emergence; rate 1000 g/Ha; evaluated after 13 days
Procedure: as §2

ZEAMX [10] = assay: as above; details: Zea mays; application post-emergence; rate 1000 g/Ha; evaluated after 13 days
Procedure: as §2

Row | Structure (SMILES) | ABUTH damage score, application pre-emergence (ABUTH [1]) | AMARE damage score, application pre-emergence (AMARE [2]) | ECHCG damage score, application pre-emergence (ECHCG [3]) | SETFA damage score, application pre-emergence (SETFA [4]) | ZEAMX damage score, application pre-emergence (ZEAMX [5]) | Post-emergence herbicidal activity ABUTH (damage score 0-5) (ABUTH [6]) | Post-emergence herbicidal activity AMARE (damage score 0-5) (AMARE [7]) | Post-emergence herbicidal activity ECHCG (damage score 0-5) (ECHCG [8]) | Post-emergence herbicidal activity SETFA (damage score 0-5) (SETFA [9]) | Post-emergence herbicidal activity ZEAMX (damage score 0-5) (ZEAMX [10])
1 | CON1C(=O)N(c2cc(Cl)c(C(=O)NC(C)(C)C)cn2)C(O)C1C (stereo not shown) [Compound A70] | 5 | 5 | 5 | 5 | 3 | 5 | 5 | 5 | 5 | 5
2 | CC1C(O)N(c2cc(Cl)c(C(=O)NC(C)(C)C)cn2)C(=O)N1C (stereo not shown) [Compound A71] | 5 | 5 | 5 | 0 | 3 | 5 | 5 | 5 | 5 | 4
3 | CON1C(=O)N(c2cc(C(F)(F)C(F)(F)F)ccn2)C(O)C1C (stereo not shown) [Compound A73] | 5 | 5 | 4 | 5 | 3 | 5 | 5 | 5 | 5 | 3
4 | CC1C(O)N(c2ccc(C(F)(F)F)cn2)C(=O)N1C (stereo not shown) [Compound A74] | 5 | 5 | 4 | 4 | 3 | 5 | 5 | 4 | 5 | 3
5 | O=C1N2CCOC2C(O)N1c1cc(C(F)(F)F)ccn1 (stereo not shown) [Compound A75] | 5 | 5 | 4 | 4 | 2 | 5 | 5 | 5 | 5 | 2
6 | COCN1C(=O)N(c2cc(C(F)(F)F)ccn2)C(O)C1C (stereo not shown) [Compound A76] | 5 | 5 | 3 | 4 | 2 | 5 | 5 | 4 | 4 | 1
7 | COC[C@@H]1C(O)N(c2cc(C(F)(F)F)ccn2)C(=O)N1C (stereo partly shown) [Compound A77] | 5 | 5 | 5 | 5 | 3 | 5 | 5 | 5 | 5 | 5
8 | COC[C@H]1C(O)N(c2cc(C(F)(F)F)ccn2)C(=O)N1C (stereo partly shown) [Compound A78] | 5 | 5 | 4 | 3 | 1 | 5 | 5 | 5 | 3 | 0
9 | CON1C(=O)N(c2cc(C(F)(F)F)c(C)cn2)C(O)[C@@H]1C (stereo partly shown) [Compound A79] | 5 | 5 | 5 | 5 | 2 | 5 | 5 | 5 | 5 | 4
10 | CON1C(=O)N(c2ccc(C(F)(F)F)cn2)C(O)C1C (stereo not shown) [Compound A80] | 5 | 5 | 5 | 4 | 2 | 5 | 5 | 5 | 5 | 4
11 | CN1C(=O)N(c2ccc(C(F)(F)F)cn2)C(O)C1O (stereo not shown) [Compound A81] | 2 | 3 | 0 | 2 | 0 | 4 | 4 | 2 | 2 | 0
12 | CCOC1C(O)N(c2cc(C(F)(F)C(F)(F)F)ccn2)C(=O)N1C (stereo not shown) [Compound A82] | 5 | 5 | 3 | 3 | 2 | 5 | 5 | 4 | 4 | 2
13 | CCOC1C(O)N(c2ccc(C(F)(F)F)cn2)C(=O)N1C (stereo not shown) [Compound A83] | 5 | 5 | 4 | 4 | 1 | 5 | 5 | 1 | 4 | 1
14 | CC1C(O)N(c2cc(C(F)F)ccn2)C(=O)N1C (stereo not shown) [Compound A84] | 5 | 5 | 5 | 5 | 3 | 5 | 5 | 5 | 5 | 4
15 | CC1C(O)N(c2cc(C(F)(F)Cl)ccn2)C(=O)N1C (stereo not shown) [Compound A85] | 5 | 5 | 5 | 5 | 3 | 5 | 5 | 5 | 5 | 4
16 | CC1C(O)N(c2cc(C(F)F)c(Cl)cn2)C(=O)N1C (stereo not shown) [Compound A86] | 5 | 5 | 5 | 5 | 3 | 5 | 5 | 5 | 5 | 2
